Results taken from ChEMBL document CHEMBL5729595, “MASP-2 inhibitors and methods of use” (2023).

Assay: Enzymatic Assay for MASP-2: The assay was run at room temperature in an assay buffer containing 20 mM Hepes, pH 7.4, 140 mM NaCl and 0.1% Tween 20. Assay parameters were adjusted such that the assay was linear with respect to time, enzyme and substrate concentrations. Under these optimized assays conditions, IC50 values were equivalent to Ki values, except in a few cases of “tight binding” inhibitors. Cases of “tight binding” or possible “slow binding” inhibitors were handled by the methods described in Copeland R. A. (2013) Evaluation of Enzyme Inhibitors in Drug Discovery. 2nd Ed., John Wiley and Sons, Inc., Chapters 5-7.

C[C@H](NC(=O)[C@H]1C[C@H](c2ccccc2)CCN1)C(=O)NCc1ccc(C(=N)N)cc1
Ki: < 500 nM
